“And” between values parts separate entries of the source, which are not always exact repeats. Equal values may be shown once. Where a SMILES comes first, the peptide text is derived from it. [ ]: non-standard residue; d: D form. Hyp = O=C(O)[C@@H]1C[C@@H](O)CN1
Test system: CCL20/MIP-3 alpha
Experiment: Example 9 Luminex, LPS hPBMCs: CCL20/MIP-3 alpha
Format: cell-based, human
Experimental: Treatment Human PBMCs were pretreated with YY-101, YDE-011 and YDE-043 or reference compound; Xiidra® at various concentration (ranging from 1 nM to 100 uM) for 2 h before stimulation. An equal volume of 0.5% DMSO was used as a vehicle control. Then, the cells were treated with LPS at 5 ug/ml. The supernatants from treated cells were harvested at 24 h and placed in a 96 well for Luminex cytokine & chemokine profiling using a Luminex 200 multiplex assay (Luminex; R&D system, USA).
The main study arm with triplicate wells per group in a 24-well plate: • 1. Blank • 2. PBMC: 0.5% DMSO • 3. PBMC+LPS (5 ug/ml) • 4. PBMC+YY-101 100 uM • 5. PBMC+YY-101 10 uM • 6. PBMC+YY-101 1 uM • 7. PBMC+YY-101 0.1 uM • 8. PBMC+YY-101 0.01 uM • 9. PBMC+LPS (5 ug/ml)+Xiidra®100 uM • 10. PBMC+LPS (5 ug/ml)+Xiidra® 10 uM • 11. PBMC+LPS (5 ug/ml)+Xiidra® 1 uM • 12. PBMC+LPS (5 ug/ml)+Xiidra®0.1 uM • 13. PBMC+LPS (5 ug/ml)+Xiidra®0.01 uM • 14. PBMC+LPS (5 ug/ml)+Xiidra®0.001 uM • 15. PBMC+LPS (5 ug/ml)+YY-101 100 uM • 16. PBMC+LPS (5 ug/ml)+YY-101 10 uM • 17. PBMC+LPS (5 ug/ml)+YY-101 1 uM • 18. PBMC+LPS (5 ug/ml)+YY-101 0.1 uM • 19. PBMC+LPS (5 ug/ml)+YY-101 0.01 uM • 20. PBMC+LPS (5 ug/ml)+YY-101 0.001 uM • 21. PBMC+LPS (5 ug/ml)+YDE-011 100 uM • 22. PBMC+LPS (5 ug/ml)+YDE-011 10 uM • 23. PBMC+LPS (5 ug/ml)+YDE-011 1 uM • 24. PBMC+LPS (5 ug/ml)+YDE-011 0.1 uM • 25. PBMC+LPS (5 ug/ml)+YDE-011 0.01 uM • 26. PBMC+LPS (5 ug/ml)+YDE-011 0.001 uM • 27. PBMC+LPS (5 ug/ml)+YDE-043 100 uM • 28. PBMC+LPS (5 ug/ml)+YDE-043 10 uM • 29. PBMC+LPS (5 ug/ml)+YDE-043 1 uM • 30. PBMC+LPS (5 ug/ml)+YDE-043 0.1 uM • 31. PBMC+LPS (5 ug/ml)+YDE-043 0.01 uM • 32. PBMC+LPS (5 ug/ml)+YDE-043 0.001 uM
Multiplex assay was used to measure 30 cytokines and chemokines. The 1:2, 1:10 and 1:200 diluted cell supernatant and serial dilution of the standard were dispensed into a 96 well plate at 50 ul/well. Then, the pre-mixed cocktail of antibody-coated magnetic beads was dispensed at 50 ul/well and incubated at room temperature for 2 h in a horizontal orbital microplate shaker at 800±500 rpm. The beads were washed using a magnetic device to prevent loss. The biotin-antibody was dispensed in 50 ul of each well and incubated at room temperature for 1 h in a shaker at 800±500 rpm. After washing, streptavidin-PE was added at 50 ul/well and incubated at room temperature for 30 min in a shaker under the same conditions. Finally, after washing, wash buffer (100 ul/well) was added to the plate and incubated in a shaker for 2 min. The Luminex™ 200 setting were set according to the manufacturer's protocol. The data was calculated with a standard five-parameter logistic nonlinear regression analysis of the data (xPonent software 4.2, USA). The levels of cytokine/chemokine are normalized to the live cell counts (1×10^5 cells/mL) and presented as concentrations per mL (pg/mL or ng/mL).

[1] = PBMC + LPS(5 ug/ml) + test article 0.001 uM, Mean
[2] = PBMC + LPS(5 ug/ml) + test article 0.001 uM, individual replicate
[3] = PBMC + LPS(5 ug/ml) + test article 0.01 uM, Mean
[4] = PBMC + LPS(5 ug/ml) + test article 0.01 uM, individual replicate
[5] = PBMC + LPS(5 ug/ml) + test article 0.1 uM, Mean
[6] = PBMC + LPS(5 ug/ml) + test article 0.1 uM, individual replicate
[7] = PBMC + LPS(5 ug/ml) + test article 1 uM, Mean
[8] = PBMC + LPS(5 ug/ml) + test article 1 uM, individual replicate
[9] = PBMC + LPS(5 ug/ml) + test article 10 uM, Mean
[10] = PBMC + LPS(5 ug/ml) + test article 10 uM, individual replicate
[11] = PBMC + LPS(5 ug/ml) + test article 100 uM, Mean
[12] = PBMC + LPS(5 ug/ml) + test article 100 uM, individual replicate
[13] = PBMC + test article 0.01 uM, no LPS, Mean
[14] = PBMC + test article 0.01 uM, no LPS, individual replicate
[15] = PBMC + test article 0.1 uM, no LPS, Mean
[16] = PBMC + test article 0.1 uM, no LPS, individual replicate
[17] = PBMC + test article 1 uM, no LPS, Mean
[18] = PBMC + test article 1 uM, no LPS, individual replicate
[19] = PBMC + test article 10 uM, no LPS, Mean
[20] = PBMC + test article 10 uM, no LPS, individual replicate
[21] = PBMC + test article 100 uM, no LPS, Mean
[22] = PBMC + test article 100 uM, no LPS, individual replicate

## CC(C)C[C@H](NC(=O)CNC(=O)[C@H](CC(=O)O)NC(=O)[C@H](CCC(N)=O)NC(=O)CNC(=O)[C@@H]1C[C@@H](O)CN1)C(=O)N[C@@H](C)C(=O)NCC(=O)N1CCC[C@H]1C(=O)N[C@@H](CCCCN)C(=O)O [YY-101] (H-[Hyp]GQDGLAGPK-OH; N-terminus and C-terminus assumed)
[1]
  Concentration, CCL20/MIP-3 alpha: 315.3 pg/mL
  MFI, CCL20/MIP-3 alpha: 346.7
  conc/live cell, CCL20/MIP-3 alpha: 49.1 pg/10^5
[2]
  Concentration, CCL20/MIP-3 alpha: 301.0 pg/mL and 289.9 pg/mL and 355.1 pg/mL
  MFI, CCL20/MIP-3 alpha: 329.0 and 315.5 and 395.5
  conc/live cell, CCL20/MIP-3 alpha: 52.8 pg/10^5 and 40.8 pg/10^5 and 53.8 pg/10^5
[3]
  Concentration, CCL20/MIP-3 alpha: 377.7 pg/mL
  MFI, CCL20/MIP-3 alpha: 423.7
  conc/live cell, CCL20/MIP-3 alpha: 61.2 pg/10^5
[4]
  Concentration, CCL20/MIP-3 alpha: 383.7 pg/mL and 338.9 pg/mL and 410.6 pg/mL
  MFI, CCL20/MIP-3 alpha: 431.0 and 375.5 and 464.5
  conc/live cell, CCL20/MIP-3 alpha: 60.0 pg/10^5 and 56.5 pg/10^5 and 67.3 pg/10^5
[5]
  Concentration, CCL20/MIP-3 alpha: 364.1 pg/mL
  MFI, CCL20/MIP-3 alpha: 406.7
  conc/live cell, CCL20/MIP-3 alpha: 62.5 pg/10^5
[6]
  Concentration, CCL20/MIP-3 alpha: 378.5 pg/mL and 364.4 pg/mL and 349.4 pg/mL
  MFI, CCL20/MIP-3 alpha: 424.5 and 407.0 and 388.5
  conc/live cell, CCL20/MIP-3 alpha: 61.0 pg/10^5 and 70.1 pg/10^5 and 56.4 pg/10^5
[7]
  Concentration, CCL20/MIP-3 alpha: 338.5 pg/mL
  MFI, CCL20/MIP-3 alpha: 375.0
  conc/live cell, CCL20/MIP-3 alpha: 52.1 pg/10^5
[8]
  Concentration, CCL20/MIP-3 alpha: 323.0 pg/mL and 330.0 pg/mL and 362.4 pg/mL
  MFI, CCL20/MIP-3 alpha: 356.0 and 364.5 and 404.5
  conc/live cell, CCL20/MIP-3 alpha: 51.3 pg/10^5 and 46.5 pg/10^5 and 58.4 pg/10^5
[9]
  Concentration, CCL20/MIP-3 alpha: 368.2 pg/mL
  MFI, CCL20/MIP-3 alpha: 411.8
  conc/live cell, CCL20/MIP-3 alpha: 55.3 pg/10^5
[10]
  Concentration, CCL20/MIP-3 alpha: 324.3 pg/mL and 377.7 pg/mL and 402.6 pg/mL
  MFI, CCL20/MIP-3 alpha: 357.5 and 423.5 and 454.5
  conc/live cell, CCL20/MIP-3 alpha: 54.0 pg/10^5 and 59.0 pg/10^5 and 53.0 pg/10^5
[11]
  Concentration, CCL20/MIP-3 alpha: 578.6 pg/mL
  MFI, CCL20/MIP-3 alpha: 677.7
  conc/live cell, CCL20/MIP-3 alpha: 100.0 pg/10^5
[12]
  Concentration, CCL20/MIP-3 alpha: 590.1 pg/mL and 591.7 pg/mL and 553.9 pg/mL
  MFI, CCL20/MIP-3 alpha: 692.5 and 694.5 and 646.0
  conc/live cell, CCL20/MIP-3 alpha: 93.7 pg/10^5 and 95.4 pg/10^5 and 110.8 pg/10^5
[13]
  Concentration, CCL20/MIP-3 alpha: 12.1 pg/mL
  MFI, CCL20/MIP-3 alpha: 11.0
  conc/live cell, CCL20/MIP-3 alpha: 2.5 pg/10^5
[14]
  Concentration, CCL20/MIP-3 alpha: 7.3 pg/mL and 16.8 pg/mL
  MFI, CCL20/MIP-3 alpha: 7.5 and 14.5
  conc/live cell, CCL20/MIP-3 alpha: 1.4 pg/10^5 and 3.5 pg/10^5
[15]
  Concentration, CCL20/MIP-3 alpha: 9.5 pg/mL
  MFI, CCL20/MIP-3 alpha: 9.0
  conc/live cell, CCL20/MIP-3 alpha: 1.8 pg/10^5
[16]
  Concentration, CCL20/MIP-3 alpha: 7.3 pg/mL and 11.6 pg/mL
  MFI, CCL20/MIP-3 alpha: 7.5 and 10.5
  conc/live cell, CCL20/MIP-3 alpha: 1.7 pg/10^5 and 2.0 pg/10^5
[17]
  Concentration, CCL20/MIP-3 alpha: 8.8 pg/mL
  MFI, CCL20/MIP-3 alpha: 8.5
  conc/live cell, CCL20/MIP-3 alpha: 1.6 pg/10^5
[18]
  Concentration, CCL20/MIP-3 alpha: 7.3 pg/mL and 10.2 pg/mL
  MFI, CCL20/MIP-3 alpha: 7.5 and 9.5
  conc/live cell, CCL20/MIP-3 alpha: 1.3 pg/10^5 and 1.9 pg/10^5
[19]
  Concentration, CCL20/MIP-3 alpha: 41.3 pg/mL
  MFI, CCL20/MIP-3 alpha: 36.5
  conc/live cell, CCL20/MIP-3 alpha: 6.6 pg/10^5
[20]
  Concentration, CCL20/MIP-3 alpha: 57.4 pg/mL and 25.3 pg/mL
  MFI, CCL20/MIP-3 alpha: 51.5 and 21.5
  conc/live cell, CCL20/MIP-3 alpha: 9.0 pg/10^5 and 4.1 pg/10^5
[21]
  Concentration, CCL20/MIP-3 alpha: 22.4 pg/mL
  MFI, CCL20/MIP-3 alpha: 19.3
  conc/live cell, CCL20/MIP-3 alpha: 3.4 pg/10^5
[22]
  Concentration, CCL20/MIP-3 alpha: 29.8 pg/mL and 14.9 pg/mL
  MFI, CCL20/MIP-3 alpha: 25.5 and 13.0
  conc/live cell, CCL20/MIP-3 alpha: 4.7 pg/10^5 and 2.1 pg/10^5
At 100.iM, LPS 5 ug/mL 24 hrs
  LPS-induced CCL20 levels (in words): further increased

From patent US20230146455A1, “TREATMENT OF INFLAMMATORY DISEASES WITH PEPTIDES AND PHARMACEUTICAL COMPOSITIONS” (Yuyu Pharma, Inc., priority 2020, published 2023)
